Data: US12589156B2, “Benzimidazole and benzimidazolone based protac compounds for the targeted degradation of leucine rich repeat kinase 2 (LRRK2)” (Arvinas Operations, Inc., priority 2023, dated 2026)

Biological target: T1, WT LRRK2 (Homo sapiens, UniProt Q5S007)
T1 construct: endogenous in cells; host or cells: HEK293 (endogenous LRRK2 gene knock-in tagged with HiBit; stably expressing CMV-driven firefly luciferase)
Test: LRRK2 HiBit degradation assay (Nano-Glo Dual Luciferase) in HEK293 cells with HiBit-tagged endogenous LRRK2
Type: cell-based
Procedure, shortened: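 HEK293 cells carrying endogenous C-terminally HiBit-tagged LRRK2 and stably expressing CMV-driven firefly luciferase were treated for 24 h at 37° C with an 11-point 1:3 series from a 1 μM final top concentration. Nano-Glo Dual Luciferase read LRRK2-HiBit against firefly signal. Alamar Blue gave viability, and signals were normalized to DMSO median before curve fitting.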

[1] = HEK293, Table 2, maximal degradation, HiBit-tagged LRRK2 in HEK293 cells, 24 hours treatment
[2] = HEK293, Table 3, comparison with direct comparators, maximal degradation
[3] = Table 2, HiBit-tagged LRRK2 in HEK293 cells, 24 hours treatment, starting concentration 1 μM
[4] = Table 3, comparison with direct comparators, HiBit-tagged LRRK2 in HEK293 cells, 24 hours treatment

T1 sequence (Q5S007 whole entry): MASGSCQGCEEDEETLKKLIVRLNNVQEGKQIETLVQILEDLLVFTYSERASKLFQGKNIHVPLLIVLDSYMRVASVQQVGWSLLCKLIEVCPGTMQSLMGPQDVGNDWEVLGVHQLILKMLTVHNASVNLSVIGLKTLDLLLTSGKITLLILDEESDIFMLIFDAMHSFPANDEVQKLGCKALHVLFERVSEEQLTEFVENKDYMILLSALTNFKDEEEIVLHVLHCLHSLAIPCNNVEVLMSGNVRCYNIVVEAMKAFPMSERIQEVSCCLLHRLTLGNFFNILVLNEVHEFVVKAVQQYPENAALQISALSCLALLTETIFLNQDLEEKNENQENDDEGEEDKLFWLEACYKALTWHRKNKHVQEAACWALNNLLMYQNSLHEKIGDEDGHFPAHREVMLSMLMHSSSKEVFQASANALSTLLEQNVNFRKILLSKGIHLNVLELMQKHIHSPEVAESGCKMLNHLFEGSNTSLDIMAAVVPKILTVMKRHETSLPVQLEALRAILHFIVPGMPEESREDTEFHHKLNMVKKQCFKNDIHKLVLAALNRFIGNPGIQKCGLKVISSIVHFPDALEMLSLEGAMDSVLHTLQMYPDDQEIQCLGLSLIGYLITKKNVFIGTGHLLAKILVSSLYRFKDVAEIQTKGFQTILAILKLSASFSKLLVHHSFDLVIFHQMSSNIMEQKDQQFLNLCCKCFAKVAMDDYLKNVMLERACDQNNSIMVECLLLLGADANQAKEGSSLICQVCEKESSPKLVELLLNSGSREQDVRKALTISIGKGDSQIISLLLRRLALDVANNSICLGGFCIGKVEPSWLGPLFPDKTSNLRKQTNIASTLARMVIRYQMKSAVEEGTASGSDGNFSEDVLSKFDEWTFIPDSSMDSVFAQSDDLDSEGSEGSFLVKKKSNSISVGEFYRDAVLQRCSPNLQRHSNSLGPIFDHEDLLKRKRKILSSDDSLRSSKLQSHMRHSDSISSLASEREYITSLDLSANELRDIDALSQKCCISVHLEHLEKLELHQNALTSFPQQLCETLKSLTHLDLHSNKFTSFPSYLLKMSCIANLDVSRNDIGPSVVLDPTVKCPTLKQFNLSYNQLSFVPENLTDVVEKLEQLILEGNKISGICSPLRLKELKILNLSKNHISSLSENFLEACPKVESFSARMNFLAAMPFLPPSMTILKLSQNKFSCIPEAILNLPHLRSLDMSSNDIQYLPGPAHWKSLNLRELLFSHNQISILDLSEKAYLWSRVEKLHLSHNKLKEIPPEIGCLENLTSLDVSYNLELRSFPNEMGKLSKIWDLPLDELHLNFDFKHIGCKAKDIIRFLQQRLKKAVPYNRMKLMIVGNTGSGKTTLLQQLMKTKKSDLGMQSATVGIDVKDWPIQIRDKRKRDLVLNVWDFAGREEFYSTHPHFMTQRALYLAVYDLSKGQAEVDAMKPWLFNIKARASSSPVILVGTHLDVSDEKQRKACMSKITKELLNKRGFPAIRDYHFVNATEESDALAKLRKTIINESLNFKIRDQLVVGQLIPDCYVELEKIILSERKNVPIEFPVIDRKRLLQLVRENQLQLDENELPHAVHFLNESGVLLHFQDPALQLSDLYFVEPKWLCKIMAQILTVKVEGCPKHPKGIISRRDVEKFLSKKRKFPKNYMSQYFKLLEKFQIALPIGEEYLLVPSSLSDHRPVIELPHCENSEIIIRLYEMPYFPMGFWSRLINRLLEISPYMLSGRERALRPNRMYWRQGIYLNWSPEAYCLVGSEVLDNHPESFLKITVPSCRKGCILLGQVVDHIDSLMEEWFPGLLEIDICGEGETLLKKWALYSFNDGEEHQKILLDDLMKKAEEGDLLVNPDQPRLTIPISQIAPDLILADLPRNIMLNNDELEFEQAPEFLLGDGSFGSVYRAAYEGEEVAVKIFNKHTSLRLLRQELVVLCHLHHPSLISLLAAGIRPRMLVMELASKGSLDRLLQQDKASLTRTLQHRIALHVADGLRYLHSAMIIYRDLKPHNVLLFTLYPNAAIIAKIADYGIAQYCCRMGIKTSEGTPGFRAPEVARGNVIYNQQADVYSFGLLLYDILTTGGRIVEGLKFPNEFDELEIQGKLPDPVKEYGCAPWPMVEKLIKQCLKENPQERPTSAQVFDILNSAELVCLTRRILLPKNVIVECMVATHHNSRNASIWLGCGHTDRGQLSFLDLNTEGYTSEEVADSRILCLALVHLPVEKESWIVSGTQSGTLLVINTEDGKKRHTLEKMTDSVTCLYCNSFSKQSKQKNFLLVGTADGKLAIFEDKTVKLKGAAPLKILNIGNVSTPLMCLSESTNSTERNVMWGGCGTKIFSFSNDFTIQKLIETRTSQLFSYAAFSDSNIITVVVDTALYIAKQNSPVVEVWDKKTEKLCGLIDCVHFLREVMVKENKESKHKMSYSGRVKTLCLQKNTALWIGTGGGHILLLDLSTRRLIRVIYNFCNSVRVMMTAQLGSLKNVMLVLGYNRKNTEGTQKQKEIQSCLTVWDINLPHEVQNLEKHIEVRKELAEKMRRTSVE

| Compound | Dmax [1] [%] | Dmax [2] [%] | DC50 [3] [nM] | DC50 [4] [nM] | increase in WT LRRK2 DC50 activity when compared to Comparator Example (versus comparator bearing a 3-(4-methoxy-1-oxoisoindolin-2-yl)piperidine-2,6-dione group) [fold] | WT LRRK2 **Dmax (%) (Table 2, maximal degradation, HiBit-tagged LRRK2 in HEK293 cells, 24 hours treatment) |
| --- | --- | --- | --- | --- | --- | --- |
| Cn1c(=O)n(C2CCC(=O)NC2=O)c2ccc(N3CCC(O[C@H]4CC[C@H](CN5CCN(c6cc(-c7n[nH]c8cnc(OC9(C)CC9)cc78)ncn6)CC5)CC4)CC3)cc21 (some centres unmarked) [Compound 1, 3-[3-methyl-2-oxo-5-(4-{[(1r,4r)-4-[(4-{6-[5-(1-methylcyclopropoxy)-1H-pyrazolo[3,4-c]pyridin-3-yl]pyrimidin-4-yl}piperazin-1-yl)methyl]cyclohexyl]oxy}piperidin-1-yl)-2,3-dihydro-1H-1,3-benzodiazol-1-yl]piperidine-2,6-dione] | 53 | 53 | 0.14 | 0.14 | > 40 | – |
| CC(C)n1c(=O)n(C2CCC(=O)NC2=O)c2ccc(N3CCC(CN4CCN(CC5CCN(c6cc(-c7n[nH]c8ccc(OC9(C)CC9)cc78)ncn6)CC5)C(C)(C)C4)CC3)cc21 (centres unmarked) [Compound 2, 3-{5-[4-({3,3-dimethyl-4-[(1-{6-[5-(1-methylcyclopropoxy)-1H-indazol-3-yl]pyrimidin-4-yl}piperidin-4-yl)methyl]piperazin-1-yl}methyl)piperidin-1-yl]-2-oxo-3-(propan-2-yl)-2,3-dihydro-1H-1,3-benzodiazol-1-yl}piperidine-2,6-dione] | 55 | – | 0.18 | – | – | – |
| CC1(Oc2ccc3[nH]nc(-c4cc(N5CCN(C[C@H]6CC[C@H](OC7CCN(c8cccc9c8ncn9C8CCC(=O)NC8=O)CC7)CC6)CC5)ncn4)c3c2)CC1 (some centres unmarked) [Compound 3, 3-[4-(4-{[(1r,4r)-4-[(4-{6-[5-(1-methylcyclopropoxy)-1H-indazol-3-yl]pyrimidin-4-yl}piperazin-1-yl)methyl]cyclohexyl]oxy}piperidin-1-yl)-1H-1,3-benzodiazol-1-yl]piperidine-2,6-dione] | 30 | 30 | 28 | 28 | – | – |
| CC1(Oc2ccc3[nH]nc(-c4cc(N5CCN(CC6CCC(OC7CCN(c8ccc9ncn(C%10CCC(=O)NC%10=O)c9c8)CC7)CC6)CC5)ncn4)c3c2)CC1 (centres unmarked) [Compound 4, 3-[6-(4-{[(1r,4r)-4-[(4-{6-[5-(1-methylcyclopropoxy)-1H-indazol-3-yl]pyrimidin-4-yl}piperazin-1-yl)methyl]cyclohexyl]oxy}piperidin-1-yl)-1H-1,3-benzodiazol-1-yl]piperidine-2,6-dione] | – | – | 7.5 | – | – | 62 |
| Cn1c(=O)n(C2CCC(=O)NC2=O)c2cc(N3CCC(OC4CCC(CN5CCN(c6cc(-c7n[nH]c8ccc(OC9(C)CC9)cc78)ncn6)CC5)CC4)CC3)ccc21 (centres unmarked) [Compound 5, 3-[3-methyl-2-oxo-6-(4-{[(1r,4r)-4-[(4-{6-[5-(1-methylcyclopropoxy)-1H-indazol-3-yl]pyrimidin-4-yl}piperazin-1-yl)methyl]cyclohexyl]oxy}piperidin-1-yl)-2,3-dihydro-1H-1,3-benzodiazol-1-yl]piperidine-2,6-dione] | – | – | ≥ 1000 | – | – | – |

Now from value to compound, other results behind:

| Dmax [1] [%] | Dmax [2] [%] | DC50 [3] [nM] | DC50 [4] [nM] | increase in WT LRRK2 DC50 activity when compared to Comparator Example (versus comparator bearing a 3-(4-methoxy-1-oxoisoindolin-2-yl)piperidine-2,6-dione group) [fold] | Compound | WT LRRK2 **Dmax (%) (Table 2, maximal degradation, HiBit-tagged LRRK2 in HEK293 cells, 24 hours treatment) |
| --- | --- | --- | --- | --- | --- | --- |
| 58 | 58 | 0.17 | 0.17 | – | Cn1c(=O)n(C2CCC(=O)NC2=O)c2ccc(N3CCC(O[C@H]4CC[C@H](CN5CCN(c6cc(-c7n[nH]c8ccc(OC9(C)CC9)cc78)ncn6)CC5)CC4)CC3)cc21 (some centres unmarked) [Compound 6, 3-[3-methyl-2-oxo-5-(4-{[(1r,4r)-4-[(4-{6-[5-(1-methylcyclopropoxy)-1H-indazol-3-yl]pyrimidin-4-yl}piperazin-1-yl)methyl]cyclohexyl]oxy}piperidin-1-yl)-2,3-dihydro-1H-1,3-benzodiazol-1-yl]piperidine-2,6-dione] | – |
| 64 | – | 6.4 | – | – | CC1(Oc2ccc3[nH]nc(-c4cc(N5CCC(CN6CCN(CC7CCN(c8ccc9ncn(C%10CCC(=O)NC%10=O)c9c8)CC7)CC6)CC5)ncn4)c3c2)CC1 (centres unmarked) [Compound 7, 3-{6-[4-({4-[(1-{6-[5-(1-methylcyclopropoxy)-1H-indazol-3-yl]pyrimidin-4-yl}piperidin-4-yl)methyl]piperazin-1-yl}methyl)piperidin-1-yl]-1H-1,3-benzodiazol-1-yl}piperidine-2,6-dione] | – |
